How the values were obtained:
GDF15 [1] = assay: Basal GDF15 gene expression in 21 lung and colorectal cancer cell lines treated with BI 894999 (RNA sequencing, qPCR); assay type: cell-based, human; settings: of 21 treated lung and colorectal cancer cell lines; 10, 35 or 100 nM, 4 h or 24 h
Excerpt: (§1) GDF15 overexpression can be both chemotherapy- and cancer-driven. Various cancer cell types were reported to overexpress GDF15, thereby exacerbating the development of cachexia. Whilst a personalized selection of chemotherapeutic agents has the potential to mitigate chemotherapy-driven GDF15 overexpression in cancer cells, it leaves basal overexpression of GDF15 unaffected. […] To test this further, we analyzed our own gene expression data of 21 lung and colorectal cancer cell lines treated with the BET inhibitor BI 894999[26]. […] Additionally, we analyzed fold-changes of GDF11 which is well known for its rejuvenating effect but also associated with cachexia, partially through upregulation of GDF15[19]. […] The more GDF15 expression was reduced, the more GDF11 expression tended to get increased upon BET inhibition in the respective cell lines (Fig. 5A).
(§2) Figure 5 GDF15 gene suppression by BET inhibitors. Effect of BET inhibition on basal GDF15 and GDF11 expression in 21 cancer cell lines and on doxorubicin-induced GDF15 overexpression in hiPSC-CMs. (A) Treatment of cancer cell lines with the BET Inhibitor BI 894999 (Supplementary Table S3). Fold-change of relative gene expression. Normalized gene expression analysis performed using RNA sequencing and qPCR, 95% confidence interval. […]

GDF11 = GDF11 gene expression in 21 lung and colorectal cancer cell lines treated with BI 894999; assay type: cell-based, human; settings: of 21 treated cell lines; 10, 35 or 100 nM, 4 h or 24 h
Excerpt: as §1, §2

GDF15 [2] = assay: Doxorubicin-induced GDF15 mRNA expression in hiPSC-CMs, successive treatment with BET inhibitors (qPCR); assay type: cell-based, human; settings: BET inhibitor given subsequently to doxorubicin
Excerpt: (§3) Host cells are known to contribute to elevated GDF15 levels in cachexia patients when exposed to drug toxicity. […] We plotted GDF15 fold-changes against the respective reported half maximal inhibitory concentrations (IC50) of each BET inhibitor for BRD2, BRD3 and BRD4, whenever available. GDF15 fold-change thereby meant the ratio of GDF15 expression induced by doxorubicin only and doxorubicin combined with BET inhibitor normalized to cell viability.
(§4) Cardiotoxic drug (SCREEN-WELL® Cardiotoxicity library, BML-2850, ENZO) library was prepared by serial dilution of 10 mM stocks in DMSO to 9 different concentrations ranging from 0.001 to 10 mM, which were further diluted into assay plates to final concentrations ranging from 0.001 to 10 µM. […] The final concentration of DMSO for hiPSC-CMs assay was 0.1%. To investigate the influence of BET inhibitor treatment on doxorubicin induced GDF15 mRNA expression, hiPSC-CMs were pre-treated with 20 nM or 200 nM doxorubicin for 48 h and kept in medium without compound for 24 h before 24 h treatment with either 100 nM BI 894999 or 500 nM OTX015. […] Cancer cell lines were treated with 10 nM, 35 nM or 100 nM of BI 894999 for 4 h or 24 h (Supplementary Table S3).
(§5) For GDF15 mRNA quantification, total RNA was isolated from the cells using an RNeasy kit (Qiagen, 74106) to synthesize cDNA using a Taqman Reverse Transcription kit (Applied Biosystems, N8080234). Quantitative real-time PCR analysis was performed using QuantiNova SYBR Green PCR Kit (Qiagen, 208052) on a CFX96 Real-Time System (Bio-Rad) under the following amplification conditions: 95 °C for 2 min followed by 40 cycles of 95 °C for 5 s and 60 °C for 10 s. The primer sequences are GDF15-F: 5′-[…]-3′, GDF15-R: 5′-[…]-3′, ACTB-F: 5′-[…]-3′ and ACTB-R: 5′-[…]-3′. PCR data were analyzed using a modified relative expression software tool (REST) and the expression level of GDF15 gene was normalized to that of β-actin.

BRD4 = assay: ChIP-seq of BRD4 bound to putative enhancers near the GDF15 gene locus in AML cell lines; assay type: cell-based; settings: 1 to 1000 nM, reanalysis of previously published ChIP-seq data ref 26
Excerpt: In 50% of NCI-60, we thereby found a correlation between drug-induced GDF15 and BRD4 expression. […]

GDF15 [3] = assay: Doxorubicin-induced GDF15 secretion in hiPSC-CMs, simultaneous treatment with BET inhibitors (ELISA); assay type: cell-based, human; settings: simultaneous 100 nM doxorubicin and 0.1 to 1000 nM BET inhibitor, 48 h
Excerpt: as §3, §4
as §5, with “β-actin. For secreted GDF15 protein quantification, cell culture medium was collected after drug treatment and stored at − 20 °C until ELISA was performed using Human GDF-15 ELISA Kit (Abcam, ab155432) according to the manufacturer’s instruction. Resulting GDF15 concentrations were normalized to non-treated control and respective relative cell viability.” for “β-actin.”
Supplementary Figure S6. (A) Fold-change of GDF15 secretion by hiPSC-CMs after simultaneous
treatment with doxorubicin and seven BET Inhibitors for 48 h. Normalized to cell viability and non-treated […]

cancer-driven cachexia = tested on: cancer-driven cachexia; parameters: method as in PMID 29167426; settings: mice; cited from earlier work

SMILES	number of cell lines with significantly reduced GDF15 expression (GDF15 [1])	number of cell lines with increased GDF11 expression (GDF11)	effect on doxorubicin-induced GDF15 overexpression (mRNA) (GDF15 [2])	BRD4 bound to putative enhancers in close vicinity to the GDF15 gene locus (BRD4)	effect on doxorubicin-induced GDF15 overexpression (secretion) (GDF15 [3])	effect on cancer-driven cachexia (cancer-driven cachexia)
CNc1nc(-c2nc3ccc(N4CCN(C)CC4)cc3n2Cc2ccccc2)cn2c(C)nnc12 [BI 894999]	9	19	suppressed	reduction of BRD4 bound to putative enhancers	–	–
Cc1sc2c(c1C)C(c1ccc(Cl)cc1)=N[C@@H](CC(=O)OC(C)(C)C)c1nnc(C)n1-2 [JQ1]	–	–	–	–	suppressed	counteract cancer-driven cachexia

Reference: publication PMC10372009, “Molecular basis of GDF15 induction and suppression by drugs in cardiomyocytes and cancer cells toward precision medicine” (Scientific Reports, 2023)
